Source: patent EP0606463B1, “NEUROMEDIN B RECEPTOR ANTAGONISTS” (The Administrators of The Tulane Educational Fund, priority 1992, dated 1994)
Where a SMILES comes first, the peptide text is derived from it. Bridges are numbered along the chain shown (N, C = ends). [ ]: non-standard residue; d: D form. 2Nal = N[C@@H](Cc1ccc2ccccc2c1)C(=O)O; d2Nal = N[C@H](Cc1ccc2ccccc2c1)C(=O)O

Tests used:
benzodiazepine-neural = assay: Neural benzodiazepine membrane receptor assay; format: binding, rat; details: at 1 µM
α1- adrenergic = assay: alpha1-adrenergic membrane receptor assay; format: binding, rat; details: at 1 µM
histamine H1 = target: T1, histamine H1 (Cavia porcellus, UniProt P31389); assay: histamine H1 membrane receptor assay; format: binding, guinea pig; details: at 1 µM
T1 construct: guinea pig cerebral (N1, histamine H1, and sigma opioid membrane receptor assays); from tissue; host or cells: guinea pig cerebral membranes
T1 sequence (P31389 whole entry): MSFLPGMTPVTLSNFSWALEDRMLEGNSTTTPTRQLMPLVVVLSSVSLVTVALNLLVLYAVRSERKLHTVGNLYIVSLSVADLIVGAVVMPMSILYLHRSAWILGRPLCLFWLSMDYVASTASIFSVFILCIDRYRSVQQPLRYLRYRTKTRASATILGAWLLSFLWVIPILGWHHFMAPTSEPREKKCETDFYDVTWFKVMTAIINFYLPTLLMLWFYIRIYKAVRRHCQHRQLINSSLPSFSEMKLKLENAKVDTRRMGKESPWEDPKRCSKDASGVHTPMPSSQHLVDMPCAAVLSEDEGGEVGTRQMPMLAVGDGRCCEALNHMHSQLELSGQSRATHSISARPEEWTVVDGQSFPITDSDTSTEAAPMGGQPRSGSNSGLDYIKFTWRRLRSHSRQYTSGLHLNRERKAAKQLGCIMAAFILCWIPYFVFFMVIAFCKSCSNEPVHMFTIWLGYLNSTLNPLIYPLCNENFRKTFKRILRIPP

sigma opioid receptor = target: T2, sigma opioid receptor (Cavia porcellus, UniProt Q60492); assay: sigma opioid membrane receptor assay; format: binding, guinea pig; details: at 1 µM
T2 construct: guinea pig cerebral (N1, histamine H1, and sigma opioid membrane receptor assays); from tissue; host or cells: guinea pig cerebral membranes
T2 sequence (Q60492 whole entry): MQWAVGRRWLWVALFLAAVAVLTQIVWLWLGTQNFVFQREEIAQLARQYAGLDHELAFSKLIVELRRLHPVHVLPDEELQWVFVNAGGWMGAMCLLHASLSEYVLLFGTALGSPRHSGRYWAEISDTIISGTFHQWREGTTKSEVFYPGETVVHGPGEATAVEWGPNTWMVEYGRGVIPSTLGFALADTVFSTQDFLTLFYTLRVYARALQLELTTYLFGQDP

GRP Receptor = target: T3, GRP Receptor (Rattus norvegicus, UniProt P52500); assay: Amylase release from rat pancreatic acini; format: cell-based
T3 construct: from tissue; host or cells: dispersed pancreatic acini
T3 sequence (P52500 whole entry): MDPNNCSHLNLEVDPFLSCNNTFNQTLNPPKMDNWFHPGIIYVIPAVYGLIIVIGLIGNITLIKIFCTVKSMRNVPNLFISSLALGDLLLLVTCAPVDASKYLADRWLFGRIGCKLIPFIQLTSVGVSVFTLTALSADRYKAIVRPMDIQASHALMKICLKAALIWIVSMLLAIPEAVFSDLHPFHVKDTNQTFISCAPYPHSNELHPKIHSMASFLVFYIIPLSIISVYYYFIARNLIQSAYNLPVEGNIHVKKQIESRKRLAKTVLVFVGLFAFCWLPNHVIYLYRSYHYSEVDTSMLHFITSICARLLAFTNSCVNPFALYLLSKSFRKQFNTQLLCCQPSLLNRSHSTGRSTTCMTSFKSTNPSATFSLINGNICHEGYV

TRH receptor = assay: TRH membrane assay; format: binding, rat; details: at 1 µM
[1] = target: T4, NMB receptors on rat olfactory bulb membranes (Rattus norvegicus, UniProt P24053); assay: NMB membrane receptor assay (rat olfactory bulb membranes); format: binding
T4 construct: Membranes were prepared from rat olfactory bulb (NMB membrane receptor assay); from tissue; host or cells: rat olfactory bulb membranes
T4 sequence (P24053 1-390): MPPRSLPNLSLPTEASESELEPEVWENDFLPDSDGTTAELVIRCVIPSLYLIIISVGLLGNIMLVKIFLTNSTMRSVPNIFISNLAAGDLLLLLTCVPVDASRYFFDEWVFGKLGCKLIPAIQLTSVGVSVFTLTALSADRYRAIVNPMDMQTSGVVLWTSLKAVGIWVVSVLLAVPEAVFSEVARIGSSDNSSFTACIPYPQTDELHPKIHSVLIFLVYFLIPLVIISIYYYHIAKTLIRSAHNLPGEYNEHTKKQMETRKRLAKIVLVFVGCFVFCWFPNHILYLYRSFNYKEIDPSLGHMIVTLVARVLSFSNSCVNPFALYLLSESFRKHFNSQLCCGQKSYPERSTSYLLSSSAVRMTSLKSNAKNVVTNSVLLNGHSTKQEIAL

NMB Receptor = target: T5, NMB Receptor (Rattus norvegicus, UniProt P24053); assay: [3H]inositol phosphates (IP) in NMB-R transfected cells; format: cell-based
T5 construct: a full length NMB-preferring bombesin receptor clone generated from rat esophagus; expressed in transfected cells; host or cells: BALB 3T3 cells
T5 sequence (P24053 1-390): T4 sequence (P24053 1-390)
Procedure, shortened: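 BALB 3T3 cells stably expressing rat NMB receptor, labelled 48 h with myo-[2-3H]inositol, then 60 min at 37°C in LiCl-containing buffer with agonists, or with 3 nM NMB plus antagonists. Total [3H]IP isolated by anion-exchange chromatography.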

[2] = target: T6, benzodiazepine-peripheral receptor (Rattus norvegicus, UniProt P16257); assay: Peripheral benzodiazepine membrane receptor assay; format: binding; details: at 1 µM
T6 construct: rat cerebral cortex (CCKB, PYY, neurotensin, ∝1-adrenergic, ∝2-adrenergic, muscarinic cholinergic, neural benzodiazepine, peripheral benzodiazepine); from tissue; host or cells: rat cerebral cortex membranes
T6 sequence (P16257 whole entry): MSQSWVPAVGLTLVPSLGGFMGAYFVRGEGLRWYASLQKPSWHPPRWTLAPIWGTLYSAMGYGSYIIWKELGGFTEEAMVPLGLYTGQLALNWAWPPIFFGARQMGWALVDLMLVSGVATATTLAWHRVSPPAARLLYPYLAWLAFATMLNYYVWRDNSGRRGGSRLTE

CCKA receptors = target: T7, CCKA receptors (Rattus norvegicus, UniProt P30551); assay: CCKA receptor assay (125I-CCK-8, rat pancreatic membranes); format: binding; details: at 1 µM
T7 construct: rat pancreas (CCKA receptor assay); from tissue; host or cells: rat pancreatic membranes
T7 sequence (P30551 whole entry): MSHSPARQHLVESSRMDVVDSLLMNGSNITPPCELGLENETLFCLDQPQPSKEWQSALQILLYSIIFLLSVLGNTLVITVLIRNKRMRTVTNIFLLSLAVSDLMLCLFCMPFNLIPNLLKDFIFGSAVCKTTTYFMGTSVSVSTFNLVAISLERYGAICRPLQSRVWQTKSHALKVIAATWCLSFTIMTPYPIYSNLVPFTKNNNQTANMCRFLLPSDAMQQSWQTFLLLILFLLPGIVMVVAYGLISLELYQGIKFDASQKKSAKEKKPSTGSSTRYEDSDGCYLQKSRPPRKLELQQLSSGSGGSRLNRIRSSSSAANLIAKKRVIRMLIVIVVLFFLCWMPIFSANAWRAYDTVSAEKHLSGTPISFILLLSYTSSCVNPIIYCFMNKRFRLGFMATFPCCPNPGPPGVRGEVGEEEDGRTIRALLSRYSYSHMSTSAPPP

dopamine2 = target: T8, dopamine2 (Rattus norvegicus, UniProt P61169); assay: dopamine2 membrane receptor assay; format: binding; details: at 1 µM
T8 construct: rat corpus striatum (dopamine1 and dopamine2 membrane receptor assays); from tissue; host or cells: rat corpus striatum membranes
T8 sequence (P61169 whole entry): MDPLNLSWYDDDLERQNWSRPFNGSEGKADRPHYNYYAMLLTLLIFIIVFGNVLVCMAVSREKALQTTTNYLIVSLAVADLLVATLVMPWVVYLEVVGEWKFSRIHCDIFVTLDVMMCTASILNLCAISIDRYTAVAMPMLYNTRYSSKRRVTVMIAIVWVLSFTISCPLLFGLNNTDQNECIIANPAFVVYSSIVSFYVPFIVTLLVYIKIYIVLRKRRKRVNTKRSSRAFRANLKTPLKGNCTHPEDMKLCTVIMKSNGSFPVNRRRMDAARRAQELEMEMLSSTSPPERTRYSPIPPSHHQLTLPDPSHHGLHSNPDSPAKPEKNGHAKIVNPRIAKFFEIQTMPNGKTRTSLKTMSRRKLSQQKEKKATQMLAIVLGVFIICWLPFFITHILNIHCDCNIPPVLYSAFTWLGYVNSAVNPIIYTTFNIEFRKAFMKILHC

muscarinic cholinergic = assay: Muscarinic cholinergic membrane receptor assay; format: binding, rat; details: at 1 µM
adenosine1 = target: T9, adenosine1 (Rattus norvegicus, UniProt P25099); assay: Adenosine membrane receptor assay; format: binding; details: at 1 µM
T9 construct: rat cerebral cortex (CCKB, PYY, neurotensin, ∝1-adrenergic, ∝2-adrenergic, muscarinic cholinergic, neural benzodiazepine, peripheral benzodiazepine, adenosine); from tissue; host or cells: rat cerebral cortex membranes
T9 sequence (P25099 whole entry): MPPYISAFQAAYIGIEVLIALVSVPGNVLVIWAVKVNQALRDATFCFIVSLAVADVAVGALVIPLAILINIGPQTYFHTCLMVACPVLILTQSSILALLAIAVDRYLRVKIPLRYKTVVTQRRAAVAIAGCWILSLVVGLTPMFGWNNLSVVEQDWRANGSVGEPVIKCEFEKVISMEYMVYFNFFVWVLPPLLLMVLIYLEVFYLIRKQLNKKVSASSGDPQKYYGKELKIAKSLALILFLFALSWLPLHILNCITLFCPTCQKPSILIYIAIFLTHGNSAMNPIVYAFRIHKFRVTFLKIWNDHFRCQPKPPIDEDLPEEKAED

CCKB = target: T10, CCKB (Rattus norvegicus, UniProt P30553); assay: CCKB membrane receptor assay; format: binding; details: at 1 µM
T10 construct: rat cerebral cortex (CCKB, PYY, neurotensin); from tissue; host or cells: rat cerebral cortex membranes
T10 sequence (P30553 whole entry): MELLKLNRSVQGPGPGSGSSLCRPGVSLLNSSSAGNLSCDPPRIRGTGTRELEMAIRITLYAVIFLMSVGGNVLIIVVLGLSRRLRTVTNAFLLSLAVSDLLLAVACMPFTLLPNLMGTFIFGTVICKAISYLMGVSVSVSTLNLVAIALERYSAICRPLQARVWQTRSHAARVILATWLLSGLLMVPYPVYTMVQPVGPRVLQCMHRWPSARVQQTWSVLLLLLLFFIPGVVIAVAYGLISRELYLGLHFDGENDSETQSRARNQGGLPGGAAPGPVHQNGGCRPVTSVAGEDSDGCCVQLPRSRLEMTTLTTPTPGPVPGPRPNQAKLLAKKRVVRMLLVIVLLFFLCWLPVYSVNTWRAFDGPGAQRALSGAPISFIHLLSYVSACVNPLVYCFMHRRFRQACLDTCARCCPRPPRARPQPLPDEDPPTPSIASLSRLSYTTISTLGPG

endothelinA = target: T11, endothelinA (Rattus norvegicus, UniProt P26684); assay: EtA membrane receptor assay (A10 smooth muscle cells); format: binding; details: at 1 µM
T11 construct: A10 smooth muscle cells (EtA membrane receptor assay); endogenous in cells; host or cells: A10 smooth muscle cells (membranes)
T11 sequence (P26684 21-426): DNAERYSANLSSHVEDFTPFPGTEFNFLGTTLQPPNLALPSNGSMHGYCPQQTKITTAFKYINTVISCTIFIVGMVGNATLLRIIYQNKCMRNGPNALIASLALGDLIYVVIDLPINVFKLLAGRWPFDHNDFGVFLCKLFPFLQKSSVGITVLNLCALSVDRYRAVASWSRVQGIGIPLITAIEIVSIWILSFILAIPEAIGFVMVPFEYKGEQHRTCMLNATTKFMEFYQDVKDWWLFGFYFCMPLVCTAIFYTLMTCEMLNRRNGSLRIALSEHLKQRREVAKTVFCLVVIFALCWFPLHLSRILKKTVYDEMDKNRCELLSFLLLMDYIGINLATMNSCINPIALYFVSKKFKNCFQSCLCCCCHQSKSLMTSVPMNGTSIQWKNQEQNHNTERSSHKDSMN

α2- adrenergic = assay: alpha2-adrenergic membrane receptor assay; format: binding, rat; details: at 1 µM

Q: What does the source list for `CC(C)[C@@H]1NC(=O)[C@H](CCCCN)NC(=O)[C@@H](Cc2c[nH]c3ccccc23)NC(=O)[C@H](Cc2ccc(O)cc2)NC(=O)[C@@H](NC(=O)[C@H](N)Cc2ccc3ccccc3c2)CSSC[C@@H](C(=O)N[C@@H](Cc2ccc3ccccc3c2)C(N)=O)NC1=O` [Analog #1, D-Nal-Cys-Tyr-D-Trp-Lys-Val-Cys-Nal-NH2] (H-[d2Nal]CY[dW]KVC[2Nal]-NH2; disulfide 2-7; N-terminus assumed)?
A: inhibition of binding to benzodiazepine-neural (benzodiazepine-neural): did not inhibit binding; inhibition of binding to α1- adrenergic (α1- adrenergic): did not inhibit binding; inhibition of binding to histamine H1 (histamine H1): did not inhibit binding; inhibition of binding to sigma opioid (sigma opioid receptor): did not inhibit binding; Rat Pancreatic Acini Amylase Release Alone (10µM) (GRP Receptor; analog 10 µM alone, no-additive control 4 ± 1): 5 ± 1 % total; Rat Pancreatic Acini Amylase Release Plus Bn(0.3 nM) (GRP Receptor; analog 10 µM plus Bn 0.3 nM, Bn without analog 15 ± 1): 15 ± 2 % total; effect on Bn-stimulated amylase release (GRP Receptor; rat pancreatic acini, Bn 0.3 nM, peptide 10 µM): did not inhibit; inhibition of binding to TRH (TRH receptor): did not inhibit binding; inhibition at 1 µM ([1]; at 1 µM, read-out: inhibition of binding to NMB receptors on rat olfactory bulb membranes): > 95%; fold greater affinity for NMB receptors than mu opioid receptors ([1]; rat olfactory bulb versus rat forebrain membranes (Table 4)): 10 fold; regression slope of Schild plot (NMB Receptor; 1, 3 or 10 µM cyclo SS-octa on NMB dose-response curve): 1.1(+0.2); complete inhibition of NMB-stimulated increases in [^3H]IP at (NMB Receptor; NMB-R transfected cells): 10 µM; detectible inhibition of NMB-stimulated increases in [^3H]IP at (NMB Receptor; NMB-R transfected cells): 0.3 µM; effect on NMB-stimulated increase in [^3H]IP (NMB Receptor; NMB-R transfected cells, 3 nM NMB, peptide 10 µM): completely inhibited; NMB-R Transfected Cells [^3H]IP Alone (10 µ M) (NMB Receptor; analog 10 µM alone, no-additive control 13 ± 3): 12 ± 2 dpm x 10^3; NMB-R Transfected Cells [^3H]IP Plus NMB (3 nM) (NMB Receptor; analog 10 µM plus NMB 3 nM, NMB without analog 186 ± 58): 8 ± 4 dpm x 10^3; Kd (NMB Receptor; rightward shift of NMB dose-response curve, NMB-R transfected cells, read-out: affinity for the NMB receptor from Schild plot): 231 ± 43 nM; inhibition of binding to benzodiazepine peripheral [2]: did not inhibit binding; inhibition of binding to CCKA (CCKA receptors): did not inhibit binding; inhibition of binding to dopamine2 (dopamine2): did not inhibit binding; inhibition of binding to muscarinic cholinergic (muscarinic cholinergic): did not inhibit binding; inhibition of binding to adenosine1 (adenosine1): did not inhibit binding; inhibition of binding to CCKB (CCKB): did not inhibit binding; inhibition of binding to endothelinA (endothelinA): did not inhibit binding; inhibition of binding to α2- adrenergic (α2- adrenergic): did not inhibit binding
